{"source": "patent US12714721B2", "about": "“Methods of treatment of a cytokine storm” (Loma Linda University Health, priority 2020, dated 2026)", "tested_on": "LPS-treated animals", "test": "Survival study of LPS-treated animals with teriflunomide", "type": "in vivo", "details": "20 mg/kg of LPS i.p. and 4 mg of teriflunomide", "protocol": "A survival study was performed with sixteen animals per group of LPS-treated animals following no treatment and treatment with teriflunomide. The control group received 20 mg/kg of LPS i.p. and no treatment; whereas the teriflunomide group received 20 mg/kg of LPS and 4 mg of teriflunomide. None of the control animals lived up to 24 hours, whereas 6 of the teriflunomide treat animals lived out to 96 hours at which time they appeared normal. The P value for the difference was less than 0.0021. FIG. 20 is a graphical representation of the survival of LPS-treated animals following no treatment and treatment with teriflunomide. All of the animals were treated with 20 mg/kg of LPS i.p. Kaplan-Meier survival in response to LPS administration. Comparison of the trend of survival curve was done using the log-rank (Mantel-Cox) test (recommended), and ** p<0.01.", "data": [{"smiles": "C/C(O)=C(\\C#N)C(=O)Nc1ccc(C(F)(F)F)cc1", "note": "[teriflunomide]", "values": [{"measurement": "Median survival", "setting": "Kaplan-Meier", "value": 48.00}, {"measurement": "animals that lived out to 96 hours", "setting": "sixteen animals per group", "value": 6}]}]}
